Earlier results in patent US12168056B2, “Scintillator nanocrystal-containing compositions and methods for their use” (The Regents of the University of California, priority 2013, dated 2024).

Test system: human glioblastoma (GBM) cells

COc1cccc2c1C(=O)c1c(O)c3c(c(O)c1C2=O)C[C@@](O)(C(=O)CO)C[C@@H]3O[C@H]1C[C@H](N)[C@H](O)[C@H](C)O1 [Dox, doxorubicin]
suppression of GBM cells in culture: potently suppresses
